# Results as given in US7745442B2, “Methods of reducing risk of infection from pathogens” (priority 2003, dated 2010).
# Target: T1, airway epithelial sodium currents (sodium channel) in canine bronchial epithelia (Canis lupus familiaris, UniProt A0A8I3MKE6+A0A8I3Q679+Q95165)
# T1 construct: endogenous in cells; host or cells: primary canine bronchial epithelial cells from freshly excised airways, cultured at air-liquid interface on Snapwell inserts
# Test: In vitro sodium channel blocking activity (short circuit current, Ussing chambers) in canine bronchial epithelia
# Type: cell-based
# Settings: potency in canine bronchial epithelia; for Fold Amiloride*: relative to amiloride (Formula III compounds), value ± spread
# Description: One assay used to assess mechanism of action and/or potency of the compounds of (1), (II), and (HI) involves the determination of lumenal drug inhibition of airway epithelial sodium currents measured under short circuit current (ISC) using airway epithelial monolayers mounted in Ussing chambers. Cells obtained from freshly excised human, dog, sheep or rodent airways are seeded onto porous 0.4 micron Snapwell™ Inserts (CoStar), cultured at air-liquid interface (ALI) conditions in hormonally defined media, and assayed for sodium transport activity (ISC) while bathed in Krebs Bicarbonate Ringer (KBR) in Using chambers. All test drug additions are to the lumenal bath with half-log dose addition protocols (from 1×10^−11 M to 3×10^−5 M), and the cumulative change in ISC (inhibition) recorded. All drugs are prepared in dimethyl sulfoxide as stock solutions at a concentration of 1×10^−2 M and stored at −20° C. Eight preparations are typically run in parallel; two preparations per run incorporate amiloride and/or benzamil as positive controls. After the maximal concentration (5×10^−5 M) is administered, the lumenal bath is exchanged three times with fresh drug-free KBR solution, and the resultant ISC measured after each wash for approximately 5 minutes in duration. Reversibility is defined as the percent return to the baseline value for sodium current after the third wash. All data from the voltage clamps are collected via a computer interface and analyzed off-line.
# Dose-effect relationships for all compounds are considered and analyzed by the Prism 3.0 program. IC50 values, maximal effective concentrations, and reversibility are calculated and compared to amiloride and benzamil as positive controls.
# Amiloride and/or a compound 33 was also tested in this assay as a positive control. The results for the compounds of the present invention are reported as fold-enhancement values relative to amiloride.
# Amiloride was also tested in this assay as a positive control. The results for the compounds of the present invention are reported as fold-enhancement values relative to amiloride.
# T1 sequence (A0A8I3Q679 entry or part of it): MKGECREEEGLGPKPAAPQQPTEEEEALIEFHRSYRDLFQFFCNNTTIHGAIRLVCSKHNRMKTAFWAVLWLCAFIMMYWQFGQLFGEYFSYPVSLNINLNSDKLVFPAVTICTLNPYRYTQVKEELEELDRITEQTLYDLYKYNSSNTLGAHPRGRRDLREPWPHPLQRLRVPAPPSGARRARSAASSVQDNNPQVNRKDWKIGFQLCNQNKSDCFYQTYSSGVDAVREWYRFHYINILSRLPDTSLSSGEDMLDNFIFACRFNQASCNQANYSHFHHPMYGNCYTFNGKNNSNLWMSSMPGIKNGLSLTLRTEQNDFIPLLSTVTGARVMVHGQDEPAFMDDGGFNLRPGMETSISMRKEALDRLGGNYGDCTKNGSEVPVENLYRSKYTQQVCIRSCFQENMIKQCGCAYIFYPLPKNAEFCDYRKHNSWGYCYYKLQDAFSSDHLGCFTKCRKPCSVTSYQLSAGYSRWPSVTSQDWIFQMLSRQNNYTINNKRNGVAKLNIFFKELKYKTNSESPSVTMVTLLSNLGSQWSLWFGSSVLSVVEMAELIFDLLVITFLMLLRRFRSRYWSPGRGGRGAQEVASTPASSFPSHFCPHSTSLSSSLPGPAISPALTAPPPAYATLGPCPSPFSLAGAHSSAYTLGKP
# T1 sequence (A0A8I3MKE6 entry or part of it): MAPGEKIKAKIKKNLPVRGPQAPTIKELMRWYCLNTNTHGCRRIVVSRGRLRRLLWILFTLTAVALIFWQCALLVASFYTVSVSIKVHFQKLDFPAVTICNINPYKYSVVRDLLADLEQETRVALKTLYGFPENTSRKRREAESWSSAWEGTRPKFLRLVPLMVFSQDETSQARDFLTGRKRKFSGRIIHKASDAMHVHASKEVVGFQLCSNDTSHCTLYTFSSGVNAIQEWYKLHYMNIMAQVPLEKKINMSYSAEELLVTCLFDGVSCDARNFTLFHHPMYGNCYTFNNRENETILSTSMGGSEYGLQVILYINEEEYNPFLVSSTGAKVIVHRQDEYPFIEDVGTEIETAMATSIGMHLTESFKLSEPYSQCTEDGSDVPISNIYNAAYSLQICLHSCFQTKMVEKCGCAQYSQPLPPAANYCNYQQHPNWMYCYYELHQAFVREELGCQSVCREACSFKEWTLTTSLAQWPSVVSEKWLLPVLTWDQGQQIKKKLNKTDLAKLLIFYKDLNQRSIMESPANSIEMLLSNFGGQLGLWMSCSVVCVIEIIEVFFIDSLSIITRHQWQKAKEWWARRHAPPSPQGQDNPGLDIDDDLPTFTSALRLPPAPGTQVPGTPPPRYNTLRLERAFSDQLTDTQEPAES
# T1 sequence (Q95165 whole entry): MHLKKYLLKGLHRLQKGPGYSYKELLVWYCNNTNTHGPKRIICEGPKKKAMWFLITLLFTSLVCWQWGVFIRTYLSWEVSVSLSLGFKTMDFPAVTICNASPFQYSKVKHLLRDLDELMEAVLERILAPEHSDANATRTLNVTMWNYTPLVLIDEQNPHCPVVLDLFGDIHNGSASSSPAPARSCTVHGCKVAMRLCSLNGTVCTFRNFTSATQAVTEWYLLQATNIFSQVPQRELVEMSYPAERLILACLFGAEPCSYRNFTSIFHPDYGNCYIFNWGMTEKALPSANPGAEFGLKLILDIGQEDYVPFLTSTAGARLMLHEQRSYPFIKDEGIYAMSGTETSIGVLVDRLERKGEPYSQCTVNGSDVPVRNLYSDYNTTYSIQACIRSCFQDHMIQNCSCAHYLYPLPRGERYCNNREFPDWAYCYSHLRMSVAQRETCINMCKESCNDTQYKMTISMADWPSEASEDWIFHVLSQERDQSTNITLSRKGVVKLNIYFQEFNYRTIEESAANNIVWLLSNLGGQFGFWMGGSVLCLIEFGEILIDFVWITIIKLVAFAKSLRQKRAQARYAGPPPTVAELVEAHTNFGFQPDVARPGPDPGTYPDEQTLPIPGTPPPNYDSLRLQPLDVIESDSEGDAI
structure (smiles),measurement,setting,value
"Cl.N=C(NCCCCc1ccc(OCC(O)CO)cc1)NC(=O)c1nc(Cl)c(N)nc1N (centres unmarked) [compound 33, 4-[4-(2,3-Dihydroxypropyloxyl)phenyl]butylamidino-3,5-diamino-6-chloropyrazinecarboxamide hydrochloride]",Fold Amiloride*,"number in brackets not explained (presumably n), listed as drawing 52: O CH2 CHOH CH2 OH, hydrochloride",51.95 (50) fold
same,Fold Amiloride*,"number in brackets not explained (presumably n), listed as drawing 53: O CH2 CHOH CH2 OH, hydrochloride",51.95 (79) fold
same,Fold Amiloride*,"number in brackets not explained, Position=Para, hydrochloride",51.55 (79) fold
"Cl.Cl.N=C(N)NCCOc1ccc(CCCCNC(=N)NC(=O)c2nc(Cl)c(N)nc2N)cc1 [compound 9518, N-(3,5-diamino-6-chloropyrazine-2-carbonyl)-N′-{4-[4-(2-guanidinoethoxy)-phenyl]butyl}guanidine dihydrochloride]",Fold Amiloride*,number in brackets not explained,120.6 ± 60.8 (11) fold
"Cl.N=C(NCCCCc1ccc(O)cc1)NC(=O)c1nc(Cl)c(N)nc1N [compound V, 4-(4-hydroxyphenyl)butylamidino-3,5-diamino-6-chloropyrazinecarboxamide hydrochloride]",Fold Enhancement Over Amiloride,"relative to amiloride (Formula I compounds, Tables 1-4)",50.3 fold
